Assay results reported in ChEMBL document CHEMBL6096738, “Optimization of Single Relaxin B-Chain Peptide Leads to the Identification of R2R01, a Potent, Long-Acting RXFP1 Agonist for Cardiovascular and Renal Diseases” (J Med Chem, 2025).
pEC50: −log10 of the molar value. Starred links: 1 amine or outer side, 2 acyl side, 3 side chain; linkers in the order of their positions; H or OH if unused. Non-standard residues stand in square brackets, D forms with d. Residues, ends and D or L forms follow the SMILES beside them. Groups on a side chain read outwards from the residue. ξ: configuration not given here. *: point of attachment. X2 = CCCCCCCCCCCCCCCC(=O)N[C@@H](CCC(=O)N[C@@H](CCC(=O)N[C@@H](CCC(=O)NCCCOCCOCCOCCCNC(=O)CCC(=O)NCCCOCCOCCOCCCNC(=O)CCC(=O)NCCCOCCOCCOCCCN*)C(=O)O)C(=O)O)C(=O)O; PEG12 = NCCOCCOCCOCCOCCOCCOCCOCCOCCOCCOCCOCCOCCC(=O)O; γGlu = O=C(O)[C@H](CCC(=O)[*:2])N[*:1]; ξγGlu = O=C(O)C(CCC(=O)[*:2])N[*:1]; Stearoyl = CCCCCCCCCCCCCCCCCC(=O)*; Palmitoyl = CCCCCCCCCCCCCCCC(=O)*; Suc = O=C(CCC(=O)[*:2])[*:1]; αMeK = C[C@](N)(CCCCN)C(=O)O; Nle = CCCC[C@H](N)C(=O)O; AEEA = NCCOCCOCC(=O)O; Aib = CC(C)(N)C(=O)O

What was measured:
[1] = target: T1, Relaxin receptor 1 (Homo sapiens, UniProt Q9HBX9); assay: Agonist activity at human RXFP1 expressed in human OVCAR-5 cells assessed as intracellular cAMP accumulation incubated for 30 mins by HTRF assay; type: functional, cell-based
T1 sequence (Q9HBX9 whole entry): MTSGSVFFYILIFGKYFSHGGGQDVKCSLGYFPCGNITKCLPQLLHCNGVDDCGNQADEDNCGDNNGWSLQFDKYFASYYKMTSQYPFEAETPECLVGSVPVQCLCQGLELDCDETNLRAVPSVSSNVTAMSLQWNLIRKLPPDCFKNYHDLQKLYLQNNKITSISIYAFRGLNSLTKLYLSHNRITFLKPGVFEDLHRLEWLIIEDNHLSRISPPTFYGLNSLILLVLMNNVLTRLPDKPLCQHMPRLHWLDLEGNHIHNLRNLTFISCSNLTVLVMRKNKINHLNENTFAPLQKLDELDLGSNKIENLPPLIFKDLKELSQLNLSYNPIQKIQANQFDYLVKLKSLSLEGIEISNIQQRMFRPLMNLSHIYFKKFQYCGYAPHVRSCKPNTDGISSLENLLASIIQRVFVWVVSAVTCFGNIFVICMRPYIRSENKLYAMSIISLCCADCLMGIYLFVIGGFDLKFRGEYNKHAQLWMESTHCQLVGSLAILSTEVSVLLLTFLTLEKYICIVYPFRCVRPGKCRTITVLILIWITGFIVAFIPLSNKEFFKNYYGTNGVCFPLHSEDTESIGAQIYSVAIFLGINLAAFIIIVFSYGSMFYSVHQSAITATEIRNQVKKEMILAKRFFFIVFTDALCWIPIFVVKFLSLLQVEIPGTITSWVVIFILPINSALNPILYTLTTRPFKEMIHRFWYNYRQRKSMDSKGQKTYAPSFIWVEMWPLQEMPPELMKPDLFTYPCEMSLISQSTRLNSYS

[2] = target: T2, Relaxin receptor 1 (Homo sapiens) (UniProt Q9HBX9); assay: Agonist activity at human RXFP1 expressed in human OVCAR-5 cells assessed as intracellular cAMP accumulation by measuring maximal efficacy incubated for 30 mins by HTRF assay relative to control; type: functional, cell-based; conditions: filed as agonist
T2 sequence (whole entry): T1 sequence (Q9HBX9 whole entry)

[3] = target: T1, Relaxin receptor 1; assay: Agonist activity at human RXFP1 expressed in 2%HSA treated human OVCAR-5 cells assessed as intracellular cAMP accumulation incubated for 30 mins with 2% HSA pretreated compound by HTRF assay; type: functional, cell-based
[4] = target: T2, Relaxin receptor 1 (Homo sapiens); assay: Agonist activity at human RXFP1 expressed in 2%HSA treated human OVCAR-5 cells assessed as intracellular cAMP accumulation by measuring maximal efficacy incubated for 30 mins with 2% HSA pretreated compound by HTRF assay relative to control; type: functional, cell-based; conditions: filed as agonist
[5] = Half-life in male Sprague-Dawley rat at 1 mg/kg, iv measured after 198 hrs by LC-HRMS analysis; type: ADME, organism-based; conditions: in vivo

SMILES | pEC50 [1] | Emax [2] | pEC50 [3] | Emax [4] | half-life [5]
CCCCCCCCCCCCCCCC(=O)N[C@@H](CCC(=O)N[C@@H](CCC(=O)N[C@@H](CCC(=O)NCCCOCCOCCOCCCNC(=O)CCC(=O)NCCCOCCOCCOCCCNC(=O)CCC(=O)NCCCOCCOCCOCCCNC(=O)CCC(=O)NCCCC[C@H](NC(=O)[C@@H](NC(=O)[C@H](CCCCNC(C)=O)NC(=O)[C@H](C)NC(=O)[C@H](CCCNC(=N)N)NC(=O)[C@@H](NC(=O)[C@H](CCCCN)NC(=O)[C@H](CCC(=O)O)NC(=O)[C@H](CCCNC(=N)N)NC(=O)CNC(=O)[C@H](CCC(=O)O)NC(=O)[C@H](CC(C)C)NC(C)=O)C(C)C)[C@@H](C)CC)C(=O)NC(C)(C)C(=O)N[C@@H](CCC(=O)O)C(=O)NCC(=O)N[C@@H](CCCC)C(=O)N[C@@H](CO)C(=O)N[C@H](C(=O)N[C@@H](Cc1ccccc1)C(=O)N[C@@H](CO)C(=O)N[C@@](C)(CCCCN)C(=O)N[C@@H](CCCNC(=N)N)C(=O)N[C@@H](C)C(=O)N[C@@H](CCCCNC(C)=O)C(N)=O)[C@@H](C)O)C(=O)O)C(=O)O)C(=O)O (Ac-LEGREKVRAK(Ac)IK([Suc-X2])[Aib]EG[Nle]STFS[αMeK]RAK(Ac)-NH2) | 9.37 | 91% | 7.50 | 89% | –
CCCCCCCCCCCCCCCC(=O)N[C@@H](CCC(=O)N[C@@H](CCC(=O)NC(CCC(=O)NCCOCCOCC(=O)NCCOCCOCC(=O)NCCOCCOCC(=O)NCCCC[C@H](NC(=O)[C@H](C)NC(=O)[C@H](CCCNC(=N)N)NC(=O)[C@@H](NC(=O)[C@H](CCCCN)NC(=O)[C@H](CCC(=O)O)NC(=O)[C@H](CCCNC(=N)N)NC(=O)CNC(=O)[C@H](CCC(=O)O)NC(=O)[C@H](CC(C)C)NC(C)=O)C(C)C)C(=O)N[C@H](C(=O)NC(C)(C)C(=O)NC(C)(C)C(=O)N[C@@H](CCC(=O)O)C(=O)NCC(=O)N[C@@H](CCCC)C(=O)N[C@@H](CO)C(=O)N[C@H](C(=O)N[C@@H](Cc1c[nH]c2ccccc12)C(=O)N[C@@H](CO)C(=O)NC(C)(C)C(=O)N[C@@H](CCCNC(=N)N)C(=O)N[C@@H](CCCCN)C(=O)N[C@@H](CCCCNC(C)=O)C(N)=O)[C@@H](C)O)[C@@H](C)CC)C(=O)O)C(=O)O)C(=O)O (stereo not given in full) (Ac-LEGREKVRAK([AEEA-AEEA-AEEA-ξγGlu-γGlu-γGlu-Palmitoyl])I[Aib][Aib]EG[Nle]STWS[Aib]RKK(Ac)-NH2) | 7.84 | 78% | < 5.70 | – | –
CCCCCCCCCCCCCCCCCC(=O)N[C@@H](CCC(=O)N[C@@H](CCC(=O)N[C@@H](CCC(=O)NCCOCCOCC(=O)NCCOCCOCC(=O)NCCOCCOCC(=O)NCCCC[C@H](NC(=O)[C@H](CCCCNC(C)=O)NC(=O)[C@H](CCCCN)NC(=O)[C@H](CCCNC(=N)N)NC(=O)C(C)(C)NC(=O)[C@H](CO)NC(=O)[C@H](Cc1c[nH]c2ccccc12)NC(=O)[C@@H](NC(=O)[C@H](CO)NC(=O)[C@H](CCC(N)=O)NC(=O)CNC(=O)[C@H](CCC(=O)O)NC(=O)C(C)(C)NC(=O)C(C)(C)NC(=O)[C@@H](NC(=O)[C@H](CCCCNC(C)=O)NC(=O)[C@H](C)NC(=O)[C@H](CCCNC(=N)N)NC(=O)[C@@H](NC(=O)[C@H](CCCCN)NC(=O)[C@H](CCC(=O)O)NC(=O)[C@H](CCCNC(=N)N)NC(=O)CNC(=O)[C@H](CCC(=O)O)NC(=O)[C@H](CC(C)C)NC(C)=O)C(C)C)[C@@H](C)CC)[C@@H](C)O)C(N)=O)C(=O)O)C(=O)O)C(=O)O (Ac-LEGREKVRAK(Ac)I[Aib][Aib]EGQSTWS[Aib]RKK(Ac)K([AEEA-AEEA-AEEA-γGlu-γGlu-γGlu-Stearoyl])-NH2) | – | 88% | 7.33 | 82% | –
CCCCCCCCCCCCCCCC(=O)N[C@@H](CCC(=O)N[C@@H](CCC(=O)N[C@@H](CCC(=O)NCCCC[C@H](NC(=O)COCCOCCNC(=O)COCCOCCNC(=O)COCCOCCNC(=O)[C@H](CCCCNC(C)=O)NC(=O)[C@H](CCCCN)NC(=O)[C@H](CCCNC(=N)N)NC(=O)C(C)(C)NC(=O)[C@H](CO)NC(=O)[C@H](Cc1c[nH]c2ccccc12)NC(=O)[C@@H](NC(=O)[C@H](CO)NC(=O)[C@H](CCCC)NC(=O)CNC(=O)[C@H](CCC(=O)O)NC(=O)C(C)(C)NC(=O)C(C)(C)NC(=O)[C@@H](NC(=O)[C@H](CCCCNC(C)=O)NC(=O)[C@H](C)NC(=O)[C@H](CCCNC(=N)N)NC(=O)[C@@H](NC(=O)[C@H](CCCCN)NC(=O)[C@H](CCC(=O)O)NC(=O)[C@H](CCCNC(=N)N)NC(=O)CNC(=O)[C@H](CCC(=O)O)NC(=O)[C@H](CC(C)C)NC(C)=O)C(C)C)[C@@H](C)CC)[C@@H](C)O)C(N)=O)C(=O)O)C(=O)O)C(=O)O (Ac-LEGREKVRAK(Ac)I[Aib][Aib]EG[Nle]STWS[Aib]RKK(Ac)[AEEA][AEEA][AEEA]K([γGlu-γGlu-γGlu-Palmitoyl])-NH2) | 8.80 | 91% | 7.11 | 80% | –
CCCCCCCCCCCCCCCC(=O)N[C@@H](CCC(=O)N[C@@H](CCC(=O)N[C@@H](CCC(=O)NCCOCCOCC(=O)NCCOCCOCC(=O)NCCOCCOCC(=O)NCCCC[C@H](NC(=O)CNC(=O)[C@H](CCC(=O)O)NC(=O)C(C)(C)NC(=O)C(C)(C)NC(=O)[C@@H](NC(=O)[C@H](CCCCNC(C)=O)NC(=O)[C@H](C)NC(=O)[C@H](CCCNC(=N)N)NC(=O)[C@@H](NC(=O)[C@H](CCCCN)NC(=O)[C@H](CCC(=O)O)NC(=O)[C@H](CCCNC(=N)N)NC(=O)CNC(=O)[C@H](CCC(=O)O)NC(=O)[C@H](CC(C)C)NC(C)=O)C(C)C)[C@@H](C)CC)C(=O)N[C@@H](CO)C(=O)N[C@H](C(=O)N[C@@H](Cc1c[nH]c2ccccc12)C(=O)N[C@@H](CO)C(=O)NC(C)(C)C(=O)N[C@@H](CCCNC(=N)N)C(=O)N[C@@H](CCCCN)C(=O)N[C@@H](CCCCNC(C)=O)C(N)=O)[C@@H](C)O)C(=O)O)C(=O)O)C(=O)O (Ac-LEGREKVRAK(Ac)I[Aib][Aib]EGK([AEEA-AEEA-AEEA-γGlu-γGlu-γGlu-Palmitoyl])STWS[Aib]RKK(Ac)-NH2) | – | 88% | < 5.70 | – | –
CCCCCCCCCCCCCCCC(=O)N[C@@H](CCC(=O)N[C@@H](CCC(=O)N[C@@H](CCC(=O)NCCCC[C@H](NC(=O)CCOCCOCCOCCOCCOCCOCCOCCOCCOCCOCCOCCOCCNC(=O)[C@H](CCCCNC(C)=O)NC(=O)[C@H](CCCCN)NC(=O)[C@H](CCCNC(=N)N)NC(=O)C(C)(C)NC(=O)[C@H](CO)NC(=O)[C@H](Cc1c[nH]c2ccccc12)NC(=O)[C@@H](NC(=O)[C@H](CO)NC(=O)[C@H](CCCC)NC(=O)CNC(=O)[C@H](CCC(=O)O)NC(=O)C(C)(C)NC(=O)C(C)(C)NC(=O)[C@@H](NC(=O)[C@H](CCCCNC(C)=O)NC(=O)C(C)(C)NC(=O)[C@H](CCCNC(=N)N)NC(=O)[C@@H](NC(=O)[C@H](CCCCN)NC(=O)[C@H](CCC(=O)O)NC(=O)[C@H](CCCNC(=N)N)NC(=O)CNC(=O)[C@H](CCC(=O)O)NC(=O)[C@H](CC(C)C)NC(C)=O)C(C)C)[C@@H](C)CC)[C@@H](C)O)C(N)=O)C(=O)O)C(=O)O)C(=O)O (Ac-LEGREKVR[Aib]K(Ac)I[Aib][Aib]EG[Nle]STWS[Aib]RKK(Ac)[PEG12]K([γGlu-γGlu-γGlu-Palmitoyl])-NH2) | – | 86% | 7.34 | 82% | 6.9 h
CCCCCCCCCCCCCCCC(=O)N[C@@H](CCC(=O)N[C@@H](CCC(=O)N[C@@H](CCC(=O)NCCCOCCOCCOCCCNC(=O)CCC(=O)NCCCOCCOCCOCCCNC(=O)CCC(=O)NCCCOCCOCCOCCCNC(=O)CCC(=O)NCCCC[C@H](NC(=O)[C@H](C)NC(=O)[C@H](CCCNC(=N)N)NC(=O)[C@@H](NC(=O)[C@H](CCCCN)NC(=O)[C@H](CCC(=O)O)NC(=O)[C@H](CCCNC(=N)N)NC(=O)CNC(=O)[C@H](CCC(=O)O)NC(=O)[C@H](CC(C)C)NC(C)=O)C(C)C)C(=O)N[C@H](C(=O)NC(C)(C)C(=O)NC(C)(C)C(=O)N[C@@H](CCC(=O)O)C(=O)NCC(=O)N[C@@H](CCC(N)=O)C(=O)N[C@@H](CO)C(=O)N[C@H](C(=O)N[C@@H](Cc1ccccc1)C(=O)N[C@@H](CO)C(=O)N[C@@](C)(CCCCN)C(=O)N[C@@H](CCCNC(=N)N)C(=O)N[C@@H](C)C(=O)N[C@@H](CCCCNC(C)=O)C(N)=O)[C@@H](C)O)[C@@H](C)CC)C(=O)O)C(=O)O)C(=O)O (Ac-LEGREKVRAK([Suc-X2])I[Aib][Aib]EGQSTFS[αMeK]RAK(Ac)-NH2) | 10.22 | 95% | 7.71 | 94% | 11.5 h
